Like-named read-outs stand apart in the source and are kept apart here.
Key:
[1] = test system: CYP2C9; design: method as in PMID 34452431; details: at concentrations up to 100 μM; cited from earlier work
[2] = test system: HIV‐1; design: method as in PMID 31911147; details: single oral dose as low as 0.5 mg, treatment-naive adults with HIV-1; cited from earlier work
[3] = test system: uridine diphosphate glucuronosyltransferase 1A1; design: method as in PMID 34452431; details: at concentrations up to 100 μM; cited from earlier work
[4] = Plasma pharmacokinetics in phase 1, open-label, fixed-sequence, 2-period drug interaction trial (MK-8591-005); type: in vivo, human
Method: (§1) This was a phase 1, open‐label, fixed‐sequence, 2‐period trial in adults without HIV (protocol MK‐8591‐005). In period 1, participants received a single oral dose of 20 mg islatravir. In period 2, participants received multiple oral doses of 50 mg dolutegravir and 300 mg TDF once daily for 11 consecutive days (days 1‐11), with a single oral dose of 20 mg islatravir coadministered on day 8. There was a washout period of ≥7 days between islatravir dosing in period 1 and the first dose of dolutegravir and TDF in period 2 (Figure 1).
Blood samples for islatravir plasma analysis were collected before dosing and at selected time points over 96 hours following administration of islatravir on day 1 of period 1 and day 8 of period 2. In period 2, samples taken at 24, 48, and 72 hours for islatravir plasma analysis were collected before dose administration of dolutegravir and TDF. Blood samples for plasma analysis of dolutegravir and tenofovir were collected before dosing on days 1, 7, and 8 of period 2 and at selected time points over 24 hours after dosing on days 7 and 8 of period 2. The 24 hour samples for dolutegravir and tenofovir analysis for days 7 and 8 were collected before dosing of dolutegravir and TDF.
Plasma concentrations of islatravir, dolutegravir, and tenofovir were determined by inVentiv Health Clinique (Québec City, Québec, Canada) using validated high‐performance liquid chromatography coupled to tandem mass spectrometry methods.
Islatravir (m/z 294.000/154.000) was extracted using an automated protein precipitation method using [^13C,^15N3]‐ISL as internal standard (m/z 297.800/158.000). The extracted samples were assessed on a system equipped with a X Select HSS T3 C18, 50×2.1 mm, 2.5 μm column with water/acetonitrile with formic acid mobile phase. […] The lower limit of quantitation for islatravir was 0.10 ng/mL, with an analytical range of 0.10 to 100.00 ng/mL.
Dolutegravir (m/z 420.200/277.200) was extracted using an automated protein precipitation method using [C^13‐d5]‐dolutegravir as the internal standard (m/z 426.300/277.300). The extracted samples were assessed on a system equipped with an ACE 3 C18, 30 × 4.6 mm, 3 μm column (Avantor, Radnor, Pennsylvania) with water/methanol with ammonium formate and formic acid mobile phase. […] The lower limit of quantitation for dolutegravir was 10.00 ng/mL, with an analytical range of 10.00 to 10 000.00 ng/mL.
Tenofovir (m/z 288.200/176.200) was extracted using an automated solid phase extraction using tenofovir‐d6 as internal standard (m/z 294.100/182.300). The extracted samples were assessed on a system equipped with an Atlantis dC18, 75 × 4.6 mm, 3 μm column (Waters Corp., Milford, Massachusetts) with water/acetonitrile with ammonium formate and formic acid mobile phase. […] The lower limit of quantitation for tenofovir was 0.50 ng/mL, with an analytical range of 0.50 to 500.00 ng/mL.
Plasma islatravir, dolutegravir, and tenofovir pharmacokinetics were summarized descriptively. Pharmacokinetic parameter values were calculated using the software Phoenix WinNonlin version 6.3 (Certara, Princeton, New Jersey). Cmax, C24, and tmax values were obtained directly from the observed plasma concentration–time data.

[5] = test system: HIV‐1; design: method as in ref 17 = [17]; 17 Molina JM , Yazdanpanah Y , Afani Saud A , et al. MK‐8591 at doses of 0.25 to 2.25 mg QD, in combination with doravirine establishes and maintains viral suppression through 48 weeks in treatment‐na; details: islatravir in combination with doravirine, treatment-naive adults with HIV-1, phase 2b; cited from earlier work
[6] = test system: CYP2C8; design: method as in PMID 34452431; details: at concentrations up to 100 μM; cited from earlier work
[7] = test system: drug transporters, pumps, transfer proteins, extrusion proteins, or resistance proteins; details: cited from earlier work
[8] = test system: CYP2C19; design: method as in PMID 34452431; details: at concentrations up to 100 μM; cited from earlier work
[9] = test system: CYP2B6; design: method as in PMID 34452431; details: at concentrations up to 100 μM; cited from earlier work
[10] = test system: CYP2D6; design: method as in PMID 34452431; details: at concentrations up to 100 μM; cited from earlier work
[11] = test system: CYP1A2; design: method as in PMID 34452431; details: at concentrations up to 100 μM; cited from earlier work
[12] = test system: CYP3A4; design: method as in PMID 34452431; details: up to 200 μM; cited from earlier work
[13] = design: method as in ref 14, 15 = [14]; 14 Rudd D , Cao Y , Vaddady P , et al. Modeling‐supported islatravir dose selection for phase 3 . Poster presented at Conference on Retroviruses and Opportunistic Infections (CROI); March 8–10 , 2020 || [15]; 15 Matthews RP , Rudd JD , Levine V , et al. Multiple daily doses of MK‐8591 as low as 0.25 mg are expected to suppress HIV . Oral presentation at Conference on Retroviruses and Opportunistic Infectio; details: single oral doses of islatravir, adults without HIV; cited from earlier work
[14] = Safety and tolerability in the phase 1 trial (adverse event reports, laboratory tests, ECG, vital signs); type: in vivo, human; details: for participants reporting AEs considered drug-related: of 12 participants; for tolerability: adults without HIV, N = 12
Method: as §1
Safety and tolerability were monitored by repeated clinical and laboratory evaluations for the duration of the trial. Safety evaluations included adverse event (AE) reports, laboratory tests, 12‐lead electrocardiograms, and vital signs.
Incidence of adverse experiences was descriptively summarized.

## C#C[C@]1(CO)O[C@@H](n2cnc3c(N)nc(F)nc32)C[C@@H]1O [Islatravir, 4′‐Ethynyl‐2‐fluoro‐2′‐deoxyadenosine]
[1]
  inhibitory effect on CYP2C9: no inhibitory effect
[2]
  duration of effective viral suppression: up to 7 days
[3]
  inhibitory effects on uridine diphosphate glucuronosyltransferase 1A1: No inhibitory effects
[4]; coadministration with steady-state dolutegravir and TDF compared with islatravir administered alone
  increase of islatravir AUC0‐inf on coadministration: 28%
[4]; human, oral, plasma islatravir, single 20 mg islatravir on day 8 with 50 mg dolutegravir + 300 mg TDF once daily, period 2, N = 12, read-out: Apparent terminal t1/2, geometric mean (geometric CV %) (converted)
  half-life: 55.9 h
[4]; human, plasma, oral, plasma islatravir, single 20 mg islatravir on day 8 with 50 mg dolutegravir + 300 mg TDF once daily days 1-11, period 2, N = 12, read-out: AUC0‐inf, AM (SD)
  AUC: 2.53 µM·h
[4]; human, plasma, oral, plasma islatravir, single 20 mg islatravir on day 8 with 50 mg dolutegravir + 300 mg TDF once daily days 1-11, period 2, N = 12, read-out: AUC0‐inf, GM (95%CI)
  AUC: 2.51 µM·h
[4]; human, plasma, oral, plasma islatravir, single 20 mg islatravir on day 8 with 50 mg dolutegravir + 300 mg TDF once daily days 1-11, period 2, N = 12, read-out: Cmax, AM (SD)
  Cmax: 522 nM
[4]; human, plasma, oral, plasma islatravir, single 20 mg islatravir on day 8 with 50 mg dolutegravir + 300 mg TDF once daily days 1-11, period 2, N = 12, read-out: Cmax, GM (95%CI)
  Cmax: 510 nM
[4]; human, plasma, oral, plasma islatravir, single 20 mg islatravir on day 8 with 50 mg dolutegravir + 300 mg TDF once daily, period 2, N = 12, read-out: Apparent terminal t1/2, AM (SD) (converted)
  half-life: 56.2 h
[4]; human, plasma, po, 20 mg, plasma islatravir, islatravir alone, single oral 20 mg, day 1 period 1, N = 12, read-out: AUC0‐inf, AM (SD)
  AUC: 2 µM·h
[4]; human, plasma, po, 20 mg, plasma islatravir, islatravir alone, single oral 20 mg, day 1 period 1, N = 12, read-out: AUC0‐inf, GM (95%CI)
  AUC: 1.97 µM·h
[4]; human, plasma, po, 20 mg, plasma islatravir, islatravir alone, single oral 20 mg, day 1 period 1, N = 12, read-out: Apparent terminal t1/2, AM (SD) (converted)
  half-life: 57.2 h
[4]; human, plasma, po, 20 mg, plasma islatravir, islatravir alone, single oral 20 mg, day 1 period 1, N = 12, read-out: Apparent terminal t1/2, geometric mean (geometric CV %) (converted)
  half-life: 56.6 h
[4]; human, plasma, po, 20 mg, plasma islatravir, islatravir alone, single oral 20 mg, day 1 period 1, N = 12, read-out: Cmax, AM (SD)
  Cmax: 495 nM
[4]; human, plasma, po, 20 mg, plasma islatravir, islatravir alone, single oral 20 mg, day 1 period 1, N = 12, read-out: Cmax, GM (95%CI)
  Cmax: 479 nM
[4]; human, plasma, po, 20 mg, plasma islatravir, islatravir alone, single oral 20 mg, day 1 period 1, N = 12, read-out: tmax, median (min‐max)
  Tmax: 0.75 h
[4]; plasma islatravir, single 20 mg islatravir on day 8 with 50 mg dolutegravir + 300 mg TDF once daily, period 2, N = 12
  tmax, median (min‐max): 1.00 (0.50‐2.01) h
[5]
  duration of maintained virologic suppression: up to 48 weeks
[6]
  inhibitory effect on CYP2C8: no inhibitory effect
[7]
  interference with drug transporters, pumps, transfer proteins, extrusion proteins, or resistance proteins: not found to interfere
[8]
  inhibitory effect on CYP2C19: no inhibitory effect
[9]
  inhibitory effect on CYP2B6: no inhibitory effect
[10]
  inhibitory effect on CYP2D6: no inhibitory effect
[11]
  inhibitory effect on CYP1A2: no inhibitory effect
[12]
  inhibitory effect on CYP3A4: no inhibitory effect
[13]
  time to peak plasma concentrations: ≈ 0.5 hours
[14]; after administration of islatravir
  participants reporting AEs considered drug-related: 3 participants
[14]; after coadministration of all 3 therapies (islatravir, dolutegravir, TDF)
  participants reporting AEs considered drug-related: 1 participant
[14]; islatravir alone, single oral 20 mg
  tolerability: generally well tolerated
[14]; islatravir in combination with dolutegravir and TDF
  tolerability: generally well tolerated

From publication PMC9298070, “Lack of a Clinically Meaningful Drug Interaction Between the HIV‐1 Antiretroviral Agents Islatravir, Dolutegravir, and Tenofovir Disoproxil Fumarate” (Clinical Pharmacology in Drug Development, 2021)
